Source: patent publication US20070293486A1, “Alpha-Keto Carbonyl Calpain Inhibitors” (SANTHERA PHARMACEUTICALS (SCHWEIZ) AG, priority 2004, published 2007)

How the values were obtained:
[1] = biological target: T1, 20S Proteasome (Oryctolagus cuniculus, UniProt G1T4Q9); assay: 20S Proteasome Assay; type: biochemical; details: Rabbit, read-out: 20S Prot IC50
T1 sequence (G1T4Q9 1-263): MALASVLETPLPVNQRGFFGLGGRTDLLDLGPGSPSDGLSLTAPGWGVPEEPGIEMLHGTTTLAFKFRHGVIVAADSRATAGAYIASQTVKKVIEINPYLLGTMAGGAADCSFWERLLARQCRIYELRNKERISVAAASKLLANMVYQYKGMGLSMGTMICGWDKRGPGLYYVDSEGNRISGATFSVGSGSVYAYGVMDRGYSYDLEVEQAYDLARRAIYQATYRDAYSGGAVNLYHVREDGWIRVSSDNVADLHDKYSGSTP
Protocol: 25 μl of a reaction buffer containing 400 μM of the fluorogenic substrate Suc-Leu-Leu-Val-Tyr-AMC (Bachem) are dispensed per well of a white microtiter plate. Test compounds dissolved in 0.5 μl DMSO are added. To start the reaction; 25 μl of reaction buffer containing 35 ng of enzyme (20S Proteasome, Rabbit, Calbiochem) are added. The increase in fluorescence (excitation at 360 nm; emission at 440 nm) is measured over 30 min at 30° C. at 30″. The IC50's are then determined from the slopes.

[2] = biological target: T2, human μ-calpain (Homo sapiens, UniProt P07384); assay: Enzymatic Calpain Inhibition Assay; type: biochemical; details: enzymatic calpain I inhibition; read-out: Calp I IC50
T2 construct: purchased Calbiochem
T2 sequence (P07384 1-714): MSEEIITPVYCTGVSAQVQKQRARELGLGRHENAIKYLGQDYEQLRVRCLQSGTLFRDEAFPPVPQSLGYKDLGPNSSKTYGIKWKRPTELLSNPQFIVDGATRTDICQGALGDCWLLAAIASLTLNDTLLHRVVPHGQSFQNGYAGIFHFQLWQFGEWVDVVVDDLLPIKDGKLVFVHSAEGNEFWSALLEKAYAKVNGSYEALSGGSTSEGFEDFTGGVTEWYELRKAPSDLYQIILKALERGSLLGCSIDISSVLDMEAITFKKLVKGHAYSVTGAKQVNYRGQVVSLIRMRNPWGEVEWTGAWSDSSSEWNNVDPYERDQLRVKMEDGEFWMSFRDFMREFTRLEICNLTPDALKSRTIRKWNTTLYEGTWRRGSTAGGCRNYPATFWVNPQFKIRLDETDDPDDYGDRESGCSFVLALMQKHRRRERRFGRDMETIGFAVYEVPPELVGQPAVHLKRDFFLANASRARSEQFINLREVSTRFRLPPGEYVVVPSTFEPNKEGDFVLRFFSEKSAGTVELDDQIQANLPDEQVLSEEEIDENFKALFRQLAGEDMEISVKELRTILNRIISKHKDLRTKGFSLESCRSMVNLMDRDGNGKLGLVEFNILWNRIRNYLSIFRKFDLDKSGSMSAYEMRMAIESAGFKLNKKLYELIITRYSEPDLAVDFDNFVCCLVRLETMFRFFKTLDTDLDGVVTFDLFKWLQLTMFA
T2 sequence (P04632 1-268 partner): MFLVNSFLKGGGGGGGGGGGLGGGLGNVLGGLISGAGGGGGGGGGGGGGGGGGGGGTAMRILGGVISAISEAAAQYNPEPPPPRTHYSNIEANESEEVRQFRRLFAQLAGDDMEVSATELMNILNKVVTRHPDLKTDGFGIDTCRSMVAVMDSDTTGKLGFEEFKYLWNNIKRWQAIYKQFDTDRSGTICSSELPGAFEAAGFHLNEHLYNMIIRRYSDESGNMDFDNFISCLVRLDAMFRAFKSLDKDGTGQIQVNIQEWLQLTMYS
Protocol: The Ki value was also determined in some cases. These criteria were used to measure the inhibitory effect of the compounds (I) on calpain I, calpain II and cathepsin B.
The inhibitory properties of calpain inhibitors are tested in 100 μl of a buffer containing 100 mM imidazole pH 7.5, 5 mM L-Cystein-HCl, 5 mM CaCl2, 250 μM of the calpain fluorogenic substrate Suc-Leu-Tyr-AMC (Sigma) (Sasaki et al., J. Biol. Chem., 1984, 259, 12489-12949) dissolved in 2.5 μl DMSO and 0.5 μg of human μ-calpain (Calbiochem). The inhibitors dissolved in 1 μl DMSO are added to the reaction buffer. The fluorescence of the cleavage product 7-amino-4-methylcoumarin (AMC) is followed in a SPECTRAmax GEMINI XS (Molecular Device) fluorimeter at λex=360 nm and λem=440 nm at 30° C. during 30 min at intervals of 30 sec in 96-well plates (Greiner). The initial reaction velocity at different inhibitor concentrations is plotted against the inhibitor concentration and the IC50 values determined graphically.

| IC50 [1] [nM] | IC50 [2] [nM] | SMILES |
| --- | --- | --- |
| 160 | 38 | CCNC(=O)C(=O)[C@H](Cc1ccc(Cl)cc1)NC(=O)[C@@H](NC(=O)[C@H](Cc1ccccc1)NC(=O)CCCCC1CCS[S+]1[O-])C(C)C (stereo partly shown) [Example 2] |
| 40 | 30 | CCNC(=O)C(=O)C(Cc1ccc(OC)cc1)NC(=O)C(CC(C)C)NC(=O)C(Cc1cccc2ccccc12)NC(=O)CCCCC1CCSS1 (stereo not shown) [Example 637] |
